Several values for one entry are separate records, joined by “and”; a condition that tells them apart may be missing. Identical values can stand only once. Like-named read-outs stand apart in the source and are kept apart here.
Assays:
[1] = tested on: human TNF; test: TNF inhibition: human whole blood assay; assay type: cell-based; conditions: Homo sapiens, LPS, read-out: TNF Inhibition-Human Whole Blood Assay
[2] = tested on: TNF-α; test: Rat assay: LPS-challenged rats, serum TNF-α by ELISA; assay type: in vivo; conditions: Rattus norvegicus, po; for inhibition in vivo at 5 mg/kg: Table 10, dose 5.0 mg/kg; for inhibition in vivo at 1 mg/kg: Table 10, dose 1.0 mg/kg
[3] = target: T1, human GST-p38 kinase alpha (Homo sapiens, UniProt Q16539); test: p38 kinase in vitro assay, second format, phosphorylation of EGFRP with 33P-ATP; assay type: biochemical; conditions: read-out: p38α Kinase Assay IC50
T1 construct: The coding region of the human p38a cDNA was obtained by PCR-amplification from RNA isolated from the human monocyte cell line THP.1; made in house; host or cells: E. coli DH10B
How it was run: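 Activated human GST-p38α (pre-activated with GST-MKK6, 1 h, 30 °C) phosphorylates EGFR 21-mer peptide (200 μM) with 50 μM ATP plus γ-33P-ATP, pH 7.5, 60 min at room temperature. Unreacted ATP removed by AG 1×8 resin; supernatant scintillation-counted.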

[4] = read-out: Rat LPS Assay % Inhibition

T1 sequence (Q16539 whole entry): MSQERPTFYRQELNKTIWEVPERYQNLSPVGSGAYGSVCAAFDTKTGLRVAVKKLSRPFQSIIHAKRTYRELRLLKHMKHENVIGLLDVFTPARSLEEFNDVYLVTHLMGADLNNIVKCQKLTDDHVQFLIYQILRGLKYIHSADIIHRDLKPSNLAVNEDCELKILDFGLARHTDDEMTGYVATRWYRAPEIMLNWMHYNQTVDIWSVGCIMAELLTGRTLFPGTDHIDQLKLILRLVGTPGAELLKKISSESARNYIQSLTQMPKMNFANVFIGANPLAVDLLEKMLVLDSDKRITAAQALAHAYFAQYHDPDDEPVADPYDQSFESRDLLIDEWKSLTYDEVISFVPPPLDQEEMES

SMILES | IC50 ([1]; Table 10, human whole blood) [nM] | IC50 ([3]; Table 10, 10% DMSO, @ 1.0 hour) [nM] | melting point [°C] | further results
Nc1[nH]nc(-c2ccc(Cl)cc2)c1-c1ccncc1 [Example A-427, 5-amino-3-(4-chlorophenyl)-4-(pyridin-4-yl)pyrazole] | 24100 | 190 | > 300 | inhibition in vivo at 5 mg/kg [2, 4]: 56%; inhibition in vivo at 20 mg/kg ([2]; Table 10, dose 20.0 mg/kg): 77%
COCCSc1[nH]nc(-c2ccc(Cl)cc2)c1-c1ccncc1 [Example A-469, 3-(4-chlorophenyl)-5-[(2-methoxyethyl)-thio]-4pyridin-4-yl-pyrazole] | 7170 | 95 | 189.2 to 190.2 | inhibition in vivo at 5 mg/kg [2, 4]: 51%; inhibition in vivo at 20 mg/kg ([2]; Table 10, dose 20.0 mg/kg): 68%
[O-][S+](c1[nH]nc(-c2ccc(Cl)cc2)c1-c1ccncc1)C1CCNCC1 (centres unmarked) [Example A-482] | 690 | 1620 | 189.1 to 190.8 | inhibition in vivo at 20 mg/kg ([2]; Table 10, dose 20.0 mg/kg): 15%
COc1ccc(CSc2[nH]nc(-c3ccc(F)cc3)c2-c2ccncc2)cc1 [Example A-452] | 240 | 2870 | 214.7 to 215.8 | 
Clc1ccc(-c2n[nH]c(OC3CCOC3)c2-c2ccncc2)cc1 (centres unmarked) [Example A-443] | 4890 | 470 | > 300 | 
Clc1ccc(-c2n[nH]c(N3CCN(C4CC4)CC3)c2-c2ccncc2)cc1 [Example A-322, 1-[5-(4-chlorophenyl)-4-(4-pyridinyl)-1H-pyrazol-3-yl)-4-cyclopropylpiperazine] |  |  | 264 to 265 | IC50 ([1]; Table 8, human whole blood): 4200 nM; inhibition in vivo at 3 mg/kg ([2]; Table 8, dose 3.0 mg/kg, read-out: Rat LPS Assay % Inhibition): 51.5%; IC50 ([3]; Table 8, 10% DMSO): 150 nM and 250 nM
O=C1CN(Cc2ccccc2)CC(=O)N1c1[nH]nc(-c2ccc(Cl)cc2)c1-c1ccncc1 [Example A-428] | 680 | 400 | > 300 | 
CN1CCN(c2[nH]nc(-c3cccc(Br)c3)c2-c2ccncc2)CC1 [Example A-409, 1-[5-(3-bromophenyl)-4-(4-pyridinyl)-1H-pyrazol-3-yl]-4-methylpiperazine] | 5270 | 210 | 222.5 to 223.4 | inhibition in vivo at 5 mg/kg [2, 4]: 41%; inhibition in vivo at 20 mg/kg ([2]; Table 10, dose 20.0 mg/kg): 89%
CSc1[nH]nc(-c2ccc(Cl)cc2)c1-c1ccncc1 [Example A-435] | > 25000 | 350 | 250.2 | inhibition in vivo at 1 mg/kg [2, 4]: 10%; inhibition in vivo at 5 mg/kg [2, 4]: 0%; inhibition in vivo at 20 mg/kg ([2]; Table 10, dose 20.0 mg/kg): 14%
O=C(CSc1[nH]nc(-c2ccc(Cl)cc2)c1-c1ccncc1)N1CCOCC1 [Example A-476] | 970 | 1010 | 215.4 to 215.5 | inhibition in vivo at 20 mg/kg ([2]; Table 10, dose 20.0 mg/kg): 35%
O=C1OCCC1CSc1[nH]nc(-c2ccc(Cl)cc2)c1-c1ccncc1 (centres unmarked) [Example A-472] | > 25000 |  | 224.2 to 225.9 | 
CN1CCN(c2n[nH]c(-c3cccc(Cl)c3)c2-c2ccncc2)CC1 [Example A-327, 1-[5-(3-chlorophenyl)-4-(4-pyridinyl)-1-H-pyrazol-3-yl]-4-methylpiperazine] |  |  | 229 to 231 | IC50 ([1]; Table 8, human whole blood): 180 nM; inhibition in vivo at 20 mg/kg ([2]; Table 8, dose 20.0 mg/kg): 83%; IC50 ([3]; Table 8, 10% DMSO): 150 nM
COc1ccc(-c2n[nH]c(N3CCN(C)CC3)c2-c2ccncc2)cc1 [Example A-415] | 510 |  | 259 to 260.2 | inhibition in vivo at 5 mg/kg [2, 4]: 17%; inhibition in vivo at 84 mg/kg ([2]; Table 10, dose […]): 84%
N#CCCCSc1[nH]nc(-c2ccc(Cl)cc2)c1-c1ccncc1 [Example A-475] | 5110 | 280 | 216.7 to 216.9 | 
CN(C)CCCNC(=O)CSc1[nH]nc(-c2ccc(Cl)cc2)c1-c1ccncc1 [Example A-463] | > 25000 | 1660 | 168.8 to 169.5 | 
Clc1ccc(-c2n[nH]c(SCCOC3CCCCO3)c2-c2ccncc2)cc1 (centres unmarked) [Example A-474] | 970 |  | 163.2 to 163.5 | inhibition in vivo at 20 mg/kg ([2]; Table 10, dose 20.0 mg/kg): 59%
CN1CCN(c2[nH]nc(-c3ccc(OC(F)(F)F)cc3)c2-c2ccncc2)CC1 [Example A-411, 1-[5-(4-trifluoromethoxyphenyl)-4-(4-pyridinyl)-1H-pyrazol-3-yl]-4-methylpiperazine] |  | 3370 | 221 to 221.2 | inhibition in vivo at 5 mg/kg [2, 4]: 40%; inhibition in vivo at 20 mg/kg ([2]; Table 10, dose 20.0 mg/kg): 0%
Clc1ccc(-c2n[nH]c(SCCc3c[nH]c4ccccc34)c2-c2ccncc2)cc1 [Example A-481] | > 25000 | 200 | 211.9 to 213.2 | 
N#CCCSc1[nH]nc(-c2ccc(Cl)cc2)c1-c1ccncc1 [Example A-483] | 510 | 300 | 205.7 to 206.5 | 
CN1CCN(c2n[nH]c(-c3ccc(C#N)cc3)c2-c2ccncc2)CC1 [Example A-412, 1-[5-(4-cyanophenyl)-4-(4-pyridinyl)-1H-pyrazol-3-yl]-4-methylpiperazine] |  | 2150 | > 300 | inhibition in vivo at 5 mg/kg [2, 4]: 0%; inhibition in vivo at 20 mg/kg ([2]; Table 10, dose 20.0 mg/kg): 0%
CCc1ccc(-c2[nH]nc(N3CCN(C)CC3)c2-c2ccncc2)cc1 [Example A-419, 1-[5-(4-ethylphenyl)-4-(4-pyridinyl)-1H-pyrazol-3-yl]-4-methylpiperazine] |  | 1310 | 221.6 to 222.6 | inhibition in vivo at 5 mg/kg [2, 4]: 24%; inhibition in vivo at 10 mg/kg ([2]; Table 10, dose 10.0 mg/kg): 58%
CN1CCC(Sc2[nH]nc(-c3ccc(Cl)cc3)c2-c2ccncc2)CC1 [Example A-468, 3-(4-chlorophenyl)-5-[(1-methylpiperidin-4-yl)-thio]-4-pyridin-4-yl-1H-pyrazole] |  | 300 | 227.7 | inhibition in vivo at 1 mg/kg [2, 4]: 46%; inhibition in vivo at 5 mg/kg [2, 4]: 50%; inhibition in vivo at 20 mg/kg ([2]; Table 10, dose 20.0 mg/kg): 94%

Further lines, with some results ahead:

IC50 ([1]; Table 10, human whole blood) [nM] | IC50 ([3]; Table 10, 10% DMSO, @ 1.0 hour) [nM] | melting point [°C] | SMILES | further results
490 | 180 | 212.7 to 213.2 | C#CCSc1[nH]nc(-c2ccc(Cl)cc2)c1-c1ccncc1 [Example A-478] | 
> 25000 | 400 | 192.8 to 195.2 | COC(=O)CSc1[nH]nc(-c2ccc(Cl)cc2)c1-c1ccncc1 [Example A-457] | 
2970 | 72 | 207.3 to 208.1 | C=CCSc1[nH]nc(-c2ccc(Cl)cc2)c1-c1ccncc1 [Example A-479] | 
> 25000 | 4130 | 174.8 to 175 | CCc1ccc(C(=O)C(=C2SCS2)c2ccncc2)cc1 [Example A-404] | 
5070 | 41 | 243 to 246.8 | Cc1ccc(-c2[nH]nc(N3CCN(C)CC3)c2-c2ccncc2)cc1 [Example A-416, 1-[5-(4-methylphenyl)-4-(4-pyridinyl)-1H-pyrazol-3-yl]-4-methylpiperazine] | 
> 25000 | 4890 | 176.6 to 176.7 | C=Cc1ccc(C(=O)C(=C2SCS2)c2ccncc2)cc1 [Example A-403] | 
> 25000 | 1660 | 284 to 288.4 | CNC(=O)CSc1[nH]nc(-c2ccc(Cl)cc2)c1-c1ccncc1 [Example A-462] | 
> 25000 | 4770 | 209.1 to 215.1 | Cc1ccc(C(=O)C(=C2SCS2)c2ccncc2)cc1 [Example A-400] | 
> 25000 | 15100 | 185.3 to 185.4 | O=C(C(=C1SCS1)c1ccncc1)c1ccc(Cl)cc1 [Example A-390] | 
> 25000 | 4850 | 167.1 to 167.5 | Cc1cc(C(=O)C(=C2SCS2)c2ccncc2)ccc1Br [Example A-405] | 
> 25000 | 45600 | 172.1 to 173.1 | CC(C)(C)c1ccc(C(=O)C(=C2SCS2)c2ccncc2)cc1 [Example A-398] | 
> 25000 | 8700 | 220.9 to 221 | CC(C)(C)OC(=O)N1CCC(Sc2[nH]nc(-c3ccc(Cl)cc3)c2-c2ccncc2)CC1 [Example A-458] | 
4610 | 2810 | 262.9 | C[S+]([O-])c1[nH]nc(-c2ccc(F)cc2)c1-c1ccncc1 (centres unmarked) [Example A-436] | 
> 25000 | 1080 | > 300 | CC(C)(C)OC(=O)NCCOc1[nH]nc(-c2ccc(Cl)cc2)c1-c1ccncc1 [Example A-445] | 
3380 | 900 | 265.3 | COc1[nH]nc(-c2ccc(Cl)cc2)c1-c1ccncc1 [Example A-446] | 
160 |  | 186.8 to 187.8 | NCCSc1[nH]nc(-c2ccc(Cl)cc2)c1-c1ccncc1 [Example A-480] | 
15000 | 78 | 202.1 to 205.4 | Fc1ccc(-c2n[nH]c(SCC3OCCO3)c2-c2ccncc2)cc1 [Example A-451] | 
> 25000 | 7240 | 168.6 to 168.7 | N#Cc1cccc(C(=O)C(=C2SCS2)c2ccncc2)c1 [Example A-406] | 

Source: patent US6525059B1, “Substituted pyrazoles as p38 kinase inhibitors” (G. D. Searle & Company, priority 1998, dated 2003)
